Consider 2 compounds from PMC10328743, “5-Nitro-3-(2-(4-phenylthiazol-2-yl)hydrazineylidene)indolin-2-one derivatives inhibit HIV-1 replication by a multitarget mechanism of action” (Frontiers in Cellular and Infection Microbiology, 2023).

The test deals with T1, HIV-1 RT-associated RDDP (Human immunodeficiency virus type 1 group M subtype B, UniProt P04585).
T1 construct: The 1:1 ratio between the p66/p51 subunits was also verified; His tag (implied only by Ni-NTA IMAC purification); made in house; host or cells: Escherichia coli M15
Description: HIV-1 RNA-dependent DNA polymerase activity determination. Format: biochemical. The note with it: wt HIV-1 RT; three independent experiments, average ± standard deviation; read-out: RDDP IC50. The procedure: Escherichia coli strain M15 containing the p6HRT-prot vector (provided by Stuart Le Grice laboratory (NCI Frederick)) was grown to an optical density at 600 nm of 0.7 and induced with 1.7 mM of isopropyl β-D-1-thiogalactopyranoside (IPTG) for 4 h. Protein purification was carried out with a BioLogic LP system (Bio-Rad, Hercules, CA, USA) using a combination of immobilized metal affinity chromatography (IMAC) and ion exchange chromatography. Cell pellets were resuspended in lysis buffer (50 mM of sodium phosphate buffer, pH 7.8, containing 0.5 mg/mL of lysozyme), incubated on ice for 20 min, and, after the addition of NaCl to a final concentration of 0.3 M, were sonicated and centrifuged at 30,000 ×g for 1 h. The supernatant was loaded onto a Ni^2+-NTA-Sepharose column pre-equilibrated with loading buffer (50 mM of sodium phosphate buffer, pH 7.8, containing 0.3 M of NaCl, 10% glycerol, and 10 mM of imidazole) and washed thoroughly with wash buffer (50 mM of sodium phosphate buffer, pH 6.0, containing 0.3 M of NaCl, 10% glycerol, and 80 mM of imidazole). RT was eluted with an imidazole gradient in the wash buffer (0–0.5 M). Fractions were collected, and protein purity was checked by sodium dodecyl sulfate–polyacrylamide gel electrophoresis (SDS-PAGE) and found to be higher than 90%. The 1:1 ratio between the p66/p51 subunits was also verified. Enzyme-containing fractions were pooled and diluted 1:1 with 50 mM of sodium phosphate buffer, pH 7.0, containing 10% glycerol, and then loaded into a Hi-trap heparin HP GE (Healthcare LifeScience) pre-equilibrated with 10 column volumes of loading buffer (50 mM of sodium phosphate buffer, pH 7.0, containing 10% glycerol, and 150 mM of NaCl). The column was then washed with loading buffer, and the RT was eluted with Elute Buffer 2 (50 mM of sodium phosphate, pH 7.0, 10% glycerol, 1 M of NaCl). Fractions were collected, and the protein was dialyzed and stored in a buffer containing 50 mM of Tris-HCl, pH 7.0, 25 mM of NaCl, 1 mM of EDTA, and 50% glycerol. Catalytic activities and protein concentrations were determined. Enzyme-containing fractions were pooled, and aliquots were stored at −80°C.
RDDP activity was measured as previously reported in 25-µl volume containing 60 mM of Tris‐HCl buffer, pH 8.1, 8 mM of MgCl2, 60 mM of KCl, 13 mM of DTT, 2.5 µM of poly(A)-oligo(dT), 100 µM of dTTP, increasing concentrations of inhibitors, whose dilution were made in water, and different amounts of enzymes according to a linear range of the dose–response curve. The reaction mixture was incubated for 30 min at 37°C and then stopped by the addition of EDTA. Reaction products were detected by pico green addition and measured with a multilabel counter plate reader Victor 3, equipped with filters for 502/523 nm.

The term IC50 denotes the concentration needed to halve the response being measured. For the compound `Cc1ccc(-c2csc(N/N=C3\C(=O)Nc4ccc([N+](=O)[O-])cc43)n2)cc1` [10a], the half-inhibitory concentration (IC50) amounted to 18 ± 1.5 µM.
The result for `O=C1Nc2ccc(Cl)cc2/C1=N/Nc1nc(-c2ccc(Cl)c(Cl)c2)cs1` [9b] reads 24 ± 3 µM.
